This assay addresses T1, Carbonic anhydrase (Saccharomyces cerevisiae S288c, UniProt P53615).
T1 sequence (P53615 whole entry): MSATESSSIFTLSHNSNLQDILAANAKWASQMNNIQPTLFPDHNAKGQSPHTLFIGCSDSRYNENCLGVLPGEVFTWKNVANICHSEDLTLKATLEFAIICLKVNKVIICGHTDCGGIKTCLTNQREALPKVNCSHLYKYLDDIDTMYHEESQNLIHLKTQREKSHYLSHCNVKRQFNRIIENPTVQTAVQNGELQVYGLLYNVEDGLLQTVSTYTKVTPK
Description: Inhibition of Saccharomyces cerevisiae recombinant CA expressed in Escherichia coli by stopped-flow CO2 hydrase assay

Usually Ki stands for the equilibrium dissociation constant of an inhibitor or competing ligand from its target. The low end stands for higher affinity, the high end for lower affinity. The molecule `Cc1ccc(-c2cc(C(F)(F)F)nn2-c2ccc(S(N)(=O)=O)cc2)cc1` [CELECOXIB] showed a Ki of 108 nM.

Regarding `NS(=O)(=O)c1ccc(C(=O)O)cc1` [CARZENIDE], the affinity, expressed as Ki, was 14500 nM. Then `NCc1ccc(S(N)(=O)=O)cc1` [MAFENIDE], with 433 nM; and `Nc1cc(Cl)c(S(N)(=O)=O)cc1S(N)(=O)=O`, with 169 nM. In the case of `Nc1nnc(S(N)(=O)=O)s1` it was 447 nM; in that of `Nc1ccc(S(N)(=O)=O)cc1I`, 976 nM; in that of `Nc1ccc(S(N)(=O)=O)cc1F`, 389 nM. Then `NS(=O)(=O)c1ccc(CO)cc1`, with 8970 nM. `Nc1ccc(S(=O)(=O)Nc2nnc(S(N)(=O)=O)s2)cc1` had a Ki of 124 nM. In the case of `Nc1nccc(Nc2ccc(S(N)(=O)=O)cc2)n1` it was 15.1 nM; in that of `Nc1ccc(S(N)(=O)=O)cc1Br`, 248 nM; in that of `CCN[C@H]1CN(CCCOC)S(=O)(=O)c2sc(S(N)(=O)=O)cc21` [BRINZOLAMIDE], 114 nM. In the case of `NS(=O)(=O)c1nnc(NS(=O)(=O)c2ccccc2)s1` [BENZOLAMIDE] it was 111 nM; in that of `NS(=O)(=O)c1nnc(-c2ccccc2Cl)s1`, 565 nM. In turn, `CC1(C)O[C@@H]2[C@@H](CO[C@@]3(COS(N)(=O)=O)OC(C)(C)O[C@@H]23)O1` [TOPIRAMATE] registered a Ki of 110 nM. The molecule `Nc1ccc(S(N)(=O)=O)cc1` [SULFANILAMIDE] returned a Ki of 18500 nM. Then `Nc1cc(C(F)(F)F)c(S(N)(=O)=O)cc1S(N)(=O)=O` [2,4-DISULFAMYLTRIFLUOROMETHYLANILINE], with 223 nM; and `Nc1ccc(S(=O)(=O)NCc2ccc(S(N)(=O)=O)cc2)cc1`, with 166 nM; and `Nc1ccc(S(N)(=O)=O)cc1Cl`, with 457 nM.

On to `Nc1ccc(S(=O)(=O)NCCc2ccc(S(N)(=O)=O)cc2)cc1`, for which affinity was put at a Ki of 154 nM.

For `NS(=O)(=O)c1ccc(S(=O)(=O)Nc2cccc3c(Cl)c[nH]c23)cc1`, the Ki turned out to be 133 nM. Then `NCCc1ccc(S(N)(=O)=O)cc1`, with 163 nM; and `Cc1ccc(S(N)(=O)=O)cc1` [P-TOLUENESULFONAMIDE], with 16100 nM. In the case of `NS(=O)(=O)c1ccc(CCO)cc1` it was 7540 nM. In the case of `O=C1NS(=O)(=O)c2ccccc21` [SACCHARIN] it was 12500 nM.

The values are drawn from ChEMBL document CHEMBL1143347, “Carbonic anhydrase inhibitors: inhibition of the beta-class enzyme from the yeast Saccharomyces cerevisiae with sulfonamides and sulfamates” (Bioorg Med Chem, 2009).
